The target in assay [1] is T1, 5HT1B receptor (Cavia porcellus, UniProt O08892).
T1 construct: in-vitro autoradiographies and ex-vivo experiments in Guinea pig; from tissue; host or cells: guinea pig brain (external globus pallidus, ventral pallidum)
Description: in-vitro autoradiographies with compound I-B. It is filed as binding. The conditions noted are these: in-vitro autoradiography, Guinea pig.

The target in assay [2] is T1, 5HT1B receptor. Kind of assay: ex-vivo experiments with compound I-B. The conditions noted are these: Guinea pig. It is filed as in vivo.
Assay [3] addresses T2, 5HT1B receptor (Macaca mulatta, UniProt F6SFA9).
T2 construct: in-vivo PET-experiments in Rhesus monkeys; from tissue; host or cells: brain of living rhesus monkeys (PET)
Description: in-vivo PET-experiments with compound I-B. The conditions noted are these: Rhesus monkeys.

Structures are written as SMILES.

T1 sequence (O08892 whole entry): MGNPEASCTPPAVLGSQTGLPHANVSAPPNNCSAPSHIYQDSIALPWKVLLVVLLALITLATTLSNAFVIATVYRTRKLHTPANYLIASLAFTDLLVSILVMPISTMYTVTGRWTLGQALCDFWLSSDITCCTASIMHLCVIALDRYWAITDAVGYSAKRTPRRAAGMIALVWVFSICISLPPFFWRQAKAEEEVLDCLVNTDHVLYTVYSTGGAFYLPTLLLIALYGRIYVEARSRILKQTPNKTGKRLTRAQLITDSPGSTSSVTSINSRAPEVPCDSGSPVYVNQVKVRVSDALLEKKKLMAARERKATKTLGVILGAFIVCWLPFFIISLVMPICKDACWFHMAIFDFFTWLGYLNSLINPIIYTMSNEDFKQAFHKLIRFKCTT
T2 sequence (F6SFA9 1-390): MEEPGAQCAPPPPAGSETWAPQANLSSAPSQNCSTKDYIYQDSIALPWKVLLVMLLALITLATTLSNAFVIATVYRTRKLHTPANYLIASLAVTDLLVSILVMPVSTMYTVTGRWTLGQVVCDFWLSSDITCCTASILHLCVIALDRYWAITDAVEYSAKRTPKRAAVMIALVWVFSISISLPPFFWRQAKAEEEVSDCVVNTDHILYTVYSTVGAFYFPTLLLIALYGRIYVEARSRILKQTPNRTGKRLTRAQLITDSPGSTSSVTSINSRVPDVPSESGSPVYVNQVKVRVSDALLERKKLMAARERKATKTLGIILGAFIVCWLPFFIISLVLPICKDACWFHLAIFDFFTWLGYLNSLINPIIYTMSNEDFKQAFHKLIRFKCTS

For `COC(C)(C)c1ccc(N2CC[C@@H](Cc3ccccc3N3CCN([11CH3])CC3)C2=O)cc1` [compound I-B, R-1-[4-(2-methoxy-isopropyl)-phenyl]-3-[2-(4-[^11C]methyl-piperazin-1-yl)benzyl]-pyrrolidin-2-one], the “sensitivity of uptake to blocking by other 5HT1B antagonists” value in assay [1], in assay [2] and in assay [3] was “sensitive to blocking by other 5HT1B antagonists in a dose dependent manner” throughout. Besides, the “specific uptake (regional distribution)” value in assay [1] is “specific uptake of compound I-B mainly in the external globus pallidus and ventral pallidum”; in assay [2], “specific uptake of compound I-B mainly in the external globus pallidus and ventral pallidum”; in assay [3], “specific uptake of compound I-B mainly in the external globus pallidus and ventral pallidum”.

For the origin of these results see patent US8012969B2, “11C-labeled benzyl-lactam compounds and their use as imaging agents” (GE Healthcare Limited, priority 2005, dated 2011).
